≈ marks a conversion by molar mass, not a printed value.
Columns and labels:
Format in all cases: functional
[1] = test system: Mycobacterium tuberculosis variant bovis; experiment: Antibacterial activity against Mycobacterium bovis BCG assessed bacterial growth inhibition by Alamar Blue cell viability assay
[2] = test system: Mycobacterium tuberculosis variant bovis; experiment: Antibacterial activity against Mycobacterium bovis BCG transfected with pVV16 vector assessed bacterial growth inhibition by Alamar Blue cell viability assay
[3] = test system: Mycobacterium tuberculosis variant bovis; experiment: Antibacterial activity against Mycobacterium bovis BCG transfected with pVV16 vector expressing Rv0636 assessed bacterial growth inhibition by Alamar Blue cell viability assay

Row | SMILES | MIC99 [1] | MIC99 [2] | MIC99 [3]
1 | O=C(/C=C/c1ccc(O)cc1)c1ccc(O)cc1O [ISOLIQUIRITIGENIN] | 50 µg/mL (≈ 195 µM) | 50 µg/mL (≈ 195 µM) | 64 µg/mL (≈ 250 µM)
2 | O=C(/C=C/c1ccc(O)c(O)c1)c1ccc(O)cc1O [BUTEIN] | 47 µg/mL (≈ 173 µM) | 43 µg/mL (≈ 158 µM) | 59 µg/mL (≈ 217 µM)

Source: ChEMBL document CHEMBL5365456, “Isolation and biological activity of natural chalcones based on antibacterial mechanism classification” (Bioorg Med Chem, 2023)
